How the values were obtained:
[1] = test system: MLLr leukemia cell line MV4-11; experiment: Cell proliferation assay MV4;11 (CellTiter-Glo, 72 hours); format: cell-based; details: Homo sapiens; MV4-11 cells, 72 hours, CellTiter-Glo; read-out: MV4; 11 IC50
Procedure, shortened: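 Cells in IMDM/10% FBS, seeded from a 15,000 cells/ml suspension, were exposed for 72 h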

[2] = target: hERG (Homo sapiens, UniProt Q12809); experiment: Patch clamp assay (hERG tail currents, whole-cell)
Chain of hERG (Q12809 whole entry): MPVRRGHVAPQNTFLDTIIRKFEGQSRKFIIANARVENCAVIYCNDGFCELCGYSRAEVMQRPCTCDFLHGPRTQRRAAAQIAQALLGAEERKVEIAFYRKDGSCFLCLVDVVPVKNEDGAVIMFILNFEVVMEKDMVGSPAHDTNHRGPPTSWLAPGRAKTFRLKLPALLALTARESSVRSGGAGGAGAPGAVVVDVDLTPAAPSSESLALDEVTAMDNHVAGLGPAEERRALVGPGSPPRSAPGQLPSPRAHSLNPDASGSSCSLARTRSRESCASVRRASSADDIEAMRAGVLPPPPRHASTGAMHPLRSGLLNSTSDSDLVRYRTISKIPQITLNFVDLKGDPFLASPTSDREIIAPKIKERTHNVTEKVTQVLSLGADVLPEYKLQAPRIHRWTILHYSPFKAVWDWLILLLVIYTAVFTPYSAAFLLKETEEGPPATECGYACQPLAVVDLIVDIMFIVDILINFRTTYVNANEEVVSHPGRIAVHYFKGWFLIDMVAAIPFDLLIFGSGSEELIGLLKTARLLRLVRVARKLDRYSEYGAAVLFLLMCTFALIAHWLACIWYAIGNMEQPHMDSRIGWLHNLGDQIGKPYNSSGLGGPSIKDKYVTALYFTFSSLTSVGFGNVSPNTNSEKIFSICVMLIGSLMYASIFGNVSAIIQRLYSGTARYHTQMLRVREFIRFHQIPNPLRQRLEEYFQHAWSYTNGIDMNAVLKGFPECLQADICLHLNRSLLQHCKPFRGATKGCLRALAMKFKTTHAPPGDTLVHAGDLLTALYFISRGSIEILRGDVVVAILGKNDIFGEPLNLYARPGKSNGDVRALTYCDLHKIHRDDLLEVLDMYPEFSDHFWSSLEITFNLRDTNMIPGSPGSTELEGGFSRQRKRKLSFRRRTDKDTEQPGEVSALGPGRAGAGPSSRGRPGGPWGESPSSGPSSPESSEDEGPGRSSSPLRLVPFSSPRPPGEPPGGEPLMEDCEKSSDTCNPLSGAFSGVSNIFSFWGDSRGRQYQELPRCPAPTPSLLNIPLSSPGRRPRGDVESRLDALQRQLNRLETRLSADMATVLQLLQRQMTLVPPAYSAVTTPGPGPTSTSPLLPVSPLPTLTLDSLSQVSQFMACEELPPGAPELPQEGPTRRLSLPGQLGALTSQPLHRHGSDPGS
Experimental: The 35 mm culture dishes upon which cells were seeded at a density allowing single cells to be recorded were placed on the dish holder of the microscope and continuously perfused (at approximately 1 mL/min) with the bath solution described in section 4.6. All solutions applied to cells including the pipette solution were maintained at room temperature (19° C. to 30° C.). After formation of a Gigaohm seal between the patch electrodes and individual hERG stably transfected HEK 293 cells (pipette resistance range: 2.0 MS to 7.0 MS; seal resistance range: >1GΩ) the cell membrane across the pipette tip was ruptured to assure electrical access to the cell interior (whole-cell patch-configuration). In case the quality of the seal was poor, the process of seal formation was repeated with a different cell and a new pipette. As soon as a stable seal could be established, hERG outward tail currents were measured upon depolarization of the cell membrane to +20 mV for 2 s (activation of channels) from a holding potential of −80 mV and upon subsequent repolarization to −40 mV for 3 s. This voltage protocol (as shown below) was run at least 10 times at intervals of 10 s. If current density was judged to be too low for measurement, another cell was recorded.
During wash-in of the test item the voltage protocol indicated above was run continuously again at 10 s intervals until the steady-state level of block was reached.
The IC50 was determined by fitting the dose response curve with a 2-parameter logistic function (amax=100%).

IC50 [1] [nM] | SMILES | hERG % Remaining ([2]; 10 μM compound) | hERG % Remaining ([2]; 30 μM compound)
< 100 | CCN(C(=O)c1cc(F)ccc1Oc1cncnc1N1CC2(CCN(C[C@@H]3CC[C@@H](NS(=O)(=O)c4csc(C)n4)CO3)CC2)C1)C(C)C [Example 71, N-Ethyl-5-fluoro-N-isopropyl-2-((4-(7-(((2S,5R)-5-((2-methylthiazole)-4-sulfonamido)tetrahydro-2H-pyran-2-yl)methyl)-2,7-diazaspiro[3.5]nonan-2-yl)pyrimidin-5-yl)oxy)benzamide] | +++ (≥66%) | ++ (233% and ≤66%)
< 100 | CCN(C(=O)c1cc(F)ccc1Oc1cncnc1N1CC2(CCN(C[C@@H]3CC[C@@H](NS(=O)(=O)c4cnc(C)o4)CO3)CC2)C1)C(C)C [Example 72, N-Ethyl-5-fluoro-N-isopropyl-2-((4-(7-(((2S,5R)-5-((2-methyloxazole)-5-sulfonamido)tetrahydro-2H-pyran-2-yl)methyl)-2,7-diazaspiro[3.5]nonan-2-yl)pyrimidin-5-yl)oxy)benzamide] | ++ (233% and ≤66%) | + (<33%)
< 100 | CCN(C(=O)c1cc(F)ccc1Oc1cncnc1N1CC2(CCN(C[C@@H]3CC[C@@H](NS(=O)(=O)c4c[nH]c(=O)cc4C)CO3)CC2)C1)C(C)C [Example 75, N-Ethyl-5-fluoro-N-isopropyl-2-((4-(7-(((2S,5R)-5-((4-methyl-6-oxo-1,6-dihydropyridine)-3-sulfonamido)tetrahydro-2H-pyran-2-yl)methyl)-2,7-diazaspiro[3.5]nonan-2-yl)pyrimidin-5-yl)oxy)benzamide] | – | +++ (≥66%)
< 100 | Cc1ncc(S(=O)(=O)N[C@@H]2CC[C@@H](CN3CCC4(CC3)CN(c3ncncc3Oc3ccc(F)cc3C(=O)N(C(C)C)C(C)C)C4)OC2)o1 [Example 80, 5-Fluoro-N,N-diisopropyl-2-((4-(7-(((2S,5R)-5-((2-methyloxazole)-5-sulfonamido)tetrahydro-2H-pyran-2-yl)methyl)-2,7-diazaspiro[3.5]nonan-2-yl)pyrimidin-5-yl)oxy)benzamide] | ++ (233% and ≤66%) | + (<33%)
< 100 | Cc1nc(S(=O)(=O)N[C@@H]2CC[C@@H](CN3CCC4(CC3)CN(c3ncncc3Oc3ccc(F)cc3C(=O)N(C(C)C)C(C)C)C4)OC2)cs1 [Example 81, 5-Fluoro-N,N-diisopropyl-2-((4-(7-(((2S,5R)-5-((2-methylthiazole)-4-sulfonamido)tetrahydro-2H-pyran-2-yl)methyl)-2,7-diazaspiro[3.5]nonan-2-yl)pyrimidin-5-yl)oxy)benzamide] | ++ (233% and ≤66%) | ++ (233% and ≤66%)
< 100 | CC(C)N(C(=O)c1cc(F)ccc1Oc1cncnc1N1CC2(CCN(C[C@@H]3CC[C@@H](NS(=O)(=O)c4cnn(C)c4Cl)CO3)CC2)C1)C(C)C [Example 82, 2-((4-(7-(((2S,5R)-5-((5-Chloro-1-methyl-1H-pyrazole)-4-sulfonamido)tetrahydro-2H-pyran-2-yl)methyl)-2,7-diazaspiro[3.5]nonan-2-yl)pyrimidin-5-yl)oxy)-5-fluoro-N,N-diisopropylbenzamide] | ++ (233% and ≤66%) | + (<33%)
< 100 | CC(C)N(C(=O)c1cc(F)ccc1Oc1cncnc1N1CC2(CCN(C[C@@H]3CC[C@@H](NS(=O)(=O)c4cnn(C5CC5)c4)CO3)CC2)C1)C(C)C [Example 83, 2-((4-(7-(((2S,5R)-5-((1-Cyclopropyl-1H-pyrazole)-4-sulfonamido)tetrahydro-2H-pyran-2-yl)methyl)-2,7-diazaspiro[3.5]nonan-2-yl)pyrimidin-5-yl)oxy)-5-fluoro-N,N-diisopropylbenzamide] | +++ (≥66%) | ++ (233% and ≤66%)
< 100 | Cc1ncc(S(=O)(=O)N[C@@H]2CC[C@@H](CN3CCC4(CC3)CN(c3ncncc3Oc3ccc(F)cc3C(=O)N(C(C)C)C(C)C)C4)OC2)s1 [Example 84, 5-Fluoro-N,N-diisopropyl-2-((4-(7-(((2S,5R)-5-((2-methylthiazole)-5-sulfonamido)tetrahydro-2H-pyran-2-yl)methyl)-2,7-diazaspiro[3.5]nonan-2-yl)pyrimidin-5-yl)oxy)benzamide] | ++ (233% and ≤66%) | + (<33%)
< 100 | CC(C)N(C(=O)c1cc(F)ccc1Oc1cncnc1N1CC2(CCN(C[C@@H]3CC[C@@H](NS(=O)(=O)c4cnn(C(F)F)c4)CO3)CC2)C1)C(C)C [Example 85, 2-((4-(7-(((2S,5R)-5-((1-(Difluoromethyl)-1H-pyrazole)-4-sulfonamido)tetrahydro-2H-pyran-2-yl)methyl)-2,7-diazaspiro[3.5]nonan-2-yl)pyrimidin-5-yl)oxy)-5-fluoro-N,N-diisopropylbenzamide] | ++ (233% and ≤66%) | + (<33%)
< 100 | CC(C)N(C(=O)c1cc(F)ccc1Oc1cncnc1N1CC2(CCN(C[C@@H]3CC[C@@H](NS(=O)(=O)c4cnn(C)c4)CO3)CC2)C1)C(C)C [Example 86, 5-Fluoro-N,N-diisopropyl-2-((4-(7-(((2S,5R)-5-((1-methyl-1H-pyrazole)-4-sulfonamido)tetrahydro-2H-pyran-2-yl)methyl)-2,7-diazaspiro[3.5]nonan-2-2-yl)pyrimidin-5-yl)oxy)benzamide] | +++ (≥66%) | +++ (≥66%)
< 100 | CC(C)N(C(=O)c1cc(F)ccc1Oc1cncnc1N1CC2(CCN(C[C@@H]3CC[C@@H](NS(=O)(=O)c4ccn(C)n4)CO3)CC2)C1)C(C)C [Example 87, 5-Fluoro-N,N-diisopropyl-2-((4-(7-(((2S,5R)-5-((1-methyl-1H-pyrazole)-3-sulfonamido)tetrahydro-2H-pyran-2-yl)methyl)-2,7-diazaspiro[3.5]nonan-2-yl)pyrimidin-5-yl)oxy)benzamide] | – | +++ (≥66%)
< 100 | Cc1nc(S(=O)(=O)N[C@@H]2CC[C@@H](CN3CCC4(CC3)CN(c3ncncc3Oc3ccc(F)cc3C(=O)N(C(C)C)C(C)C)C4)OC2)co1 [Example 91, 5-Fluoro-N,N-diisopropyl-2-((4-(7-(((2S,5R)-5-((2-methyloxazole)-4-sulfonamido)tetrahydro-2H-pyran-2-yl)methyl)-2,7-diazaspiro[3.5]nonan-2-yl)pyrimidin-5-yl)oxy)benzamide] | – | ++ (233% and ≤66%)
< 100 | CC(C)N(CC(F)F)C(=O)c1cc(F)ccc1Oc1cncnc1N1CC2(CCN(C[C@@H]3CC[C@@H](NS(=O)(=O)c4cnn(C)c4)CO3)CC2)C1 [Example 100, N-(2,2-Difluoroethyl)-5-fluoro-N-isopropyl-2-((4-(7-(((2S,5R)-5-((1-methyl-1H-pyrazole)-4-sulfonamido)tetrahydro-2H-pyran-2-yl)methyl)-2,7-diazaspiro[3.5]nonan-2-yl)pyrimidin-5-yl)oxy)benzamide] | +++ (≥66%) | +++ (≥66%)
< 100 | CC(C)N(CC(F)F)C(=O)c1cc(F)ccc1Oc1cncnc1N1CC2(CCN(C[C@@H]3CC[C@@H](NS(=O)(=O)c4ccn(C)n4)CO3)CC2)C1 [Example 103, N-(2,2-Difluoroethyl)-5-fluoro-N-isopropyl-2-((4-(7-(((2S,5R)-5-((1-methyl-1H-pyrazole)-3-sulfonamido)tetrahydro-2H-pyran-2-yl)methyl)-2,7-diazaspiro[3.5]nonan-2-yl)pyrimidin-5-yl)oxy)benzamide] | – | +++ (≥66%)
< 100 | Cc1c(S(=O)(=O)N[C@@H]2CC[C@@H](CN3CCC4(CC3)CN(c3ncncc3Oc3ccc(F)cc3C(=O)N(CC(F)F)C(C)C)C4)OC2)cnn1C [Example 104, N-(2,2-Difluoroethyl)-2-((4-(7-(((2S,5R)-5-((1,5-dimethyl-1H-pyrazole)-4-sulfonamido)tetrahydro-2H-pyran-2-yl)methyl)-2,7-diazaspiro[3.5]nonan-2-yl)pyrimidin-5-yl)oxy)-5-fluoro-N-isopropylbenzamide] | – | +++ (≥66%)
< 100 | Cc1nn(C)cc1S(=O)(=O)N[C@@H]1CC[C@@H](CN2CCC3(CC2)CN(c2ncncc2Oc2ccc(F)cc2C(=O)N(CC(F)F)C(C)C)C3)OC1 [Example 105, N-(2,2-Difluoroethyl)-2-((4-(7-(((2S,5R)-5-((1,3-dimethyl-1H-pyrazole)-4-sulfonamido)tetrahydro-2H-pyran-2-yl)methyl)-2,7-diazaspiro[3.5]nonan-2-yl)pyrimidin-5-yl)oxy)-5-fluoro-N-isopropylbenzamide] | – | +++ (≥66%)
< 100 | CC(C)N(C(=O)c1cc(F)ccc1Oc1cncnc1N1CC2(CCN(C[C@@H]3CC[C@@H](NS(=O)(=O)c4cnn(C)c4)CO3)CC2)C1)C1CC(F)(F)C1 [Example 156, N-(3,3-Difluorocyclobutyl)-5-fluoro-N-isopropyl-2-((4-(7-(((2S,5R)-5-((1-methyl-1H-pyrazole)-4-sulfonamido)tetrahydro-2H-pyran-2-yl)methyl)-2,7-diazaspiro[3.5]nonan-2-yl)pyrimidin-5-yl)oxy)benzamide] | – | +++ (≥66%)
< 100 | CCN(C(=O)c1cc(F)ccc1Oc1cncnc1N1CC2(CCN(C[C@@H]3CC[C@@H](NS(=O)(=O)N4CCC[C@H]4C)CO3)CC2)C1)C(C)C [Example 200, N-Ethyl-5-fluoro-N-isopropyl-2-((4-(7-(((2S,5R)-5-(((R)-2-methylpyrrolidine)-1-sulfonamido)tetrahydro-2H-pyran-2-yl)methyl)-2,7-diazaspiro[3.5]nonan-2-yl)pyrimidin-5-yl)oxy)benzamide] | ++ (233% and ≤66%) | + (<33%)

Reference: US20240400564A1 (Syndax Pharmaceuticals, Inc, priority 2021, published 2024)
